Measurements as given in patent US12371428B2 (Exelixis, Inc., priority 2019, dated 2025).
Counter-ions that a name gives are not always drawn. Like-named read-outs stand apart in the source and are kept apart here.

Tests used:
[1] = molecular target: Met (phospho-Met, HGF-stimulated PC-3 prostate cancer cells) (Homo sapiens (Human), UniProt P08581); assay: Met autophosphorylation ELISA in PC-3 cells (Example F); assay type: cell-based; conditions: cellular activity; Met autophosphorylation ELISA in PC-3 cells; read-out: c-Met IC50
Procedure, shortened: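 Compounds were tested on HGF-stimulated PC-3 cells. After 24 h culture and 3 h serum starvation, cells got compound for 1 h and 100 ng/mL HGF for 10 min, and Met tyrosine phosphorylation was measured by ELISA.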

[2] = molecular target: Mer (phospho-Mer, MERTK-transfected 293A cells) (Homo sapiens (Human), UniProt Q12866); assay: Mer autophosphorylation ELISA in transient transfected 293A cells (Example H); assay type: cell-based; conditions: cellular activity; Mer autophosphorylation ELISA in transient transfected 293A cells
Procedure, shortened: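 MERTK-transfected 293A; 8-pt dose, 1 h, serum-free, 0.3% DMSO. Cold lysis with orthovanadate and protease/phosphatase inhibitors. Phospho-Mer by DuoSet IC ELISA vs phospho-Mer standard. IC50: 4-PL fit; DMSO = 100%, reference inhibitor = 0%.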

[3] = molecular target: KDR (phospho-KDR, VEGF165-stimulated HUVEC cells) (Homo sapiens (Human), UniProt P35968); assay: KDR autophosphorylation ELISA in HUVEC cells (Example G); assay type: cell-based; conditions: cellular activity; KDR autophosphorylation ELISA in HUVEC cells
Procedure, shortened: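 Inhibition of VEGF165-driven KDR autophosphorylation is measured in primary human umbilical vein endothelial cells after 24 h serum deprivation. Compound preincubation lasts 1 h before a 5-minute challenge with 100 ng/mL ligand, and phosphorylated receptor is then measured by ELISA in the lysates.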

[4] = molecular target: Human MER (residues 528-999) (Homo sapiens (Human), UniProt Q12866); assay: Human Mer kinase assay, HTRF KinEase (Example C-2); assay type: biochemical
Protocol: (§1) Kinase activity and compound inhibition were also investigated using the HTRF® KinEase assay (Cisbio Cat #62TKOPEB) per manufacturer's instructions. In short, compounds were delivered in 300 nL volumes at 10 different concentrations in DMSO (3% final) to empty 384-well assay plates (Corning cat #3824). A mixture of enzyme, […] biotynlated peptide substrate, and buffer in 10 μL volume was added. The assay was started upon the addition of ATP (at Km). The 10 μL reaction was incubated at room temperature. The reaction was stopped upon the addition of detection buffer containing streptavidin-XL665 ([…]) and TK antibody-Eu3+([…]). After a 60 min incubation at room temperature, the fluorescence at 665 nm and 620 nm was read on an Envision microplate reader (Perkin Elmer).
(§2) Kinase activity normalized to DMSO (100% activity) and reference compound at […] and (0% activity) was calculated using the fluorescence ratio […]. IC50 values were calculated by nonlinear regression analysis using a 4-parameter logistic curve fit in ActivityBase XE (IDBS).
Example C-2: Human MER (residues 528-999; CarnaBio, 1 ng/well) was also incubated with enzymatic buffer (Cisbio) supplemented with 5 mM MgCl2 and 1 mM DTT. The mixture was added to the pre-plated compounds. The reaction was initiated upon addition of ATP at Km (40 μM). The reaction was incubated at room temperature for 60 min and stopped upon the addition of SA-XL665 and TK-antibody both diluted in EDTA-containing kinase detection buffer (Cisbio). The kinase activity was calculated as stated above and the IC50 values were reported.

[5] = molecular target: Human MET (residues 956-1390) (Homo sapiens (Human), UniProt P08581); assay: Human Met kinase assay, HTRF KinEase (Example D-2); assay type: biochemical; conditions: read-out: c-Met IC50
Protocol: as §1, §2
Example D-2: Human MET (residues 956-1390; CarnaBio, 0.1 ng/well) was also incubated with enzymatic buffer (Cisbio) supplemented with 5 mM MgCl2, 1 mM DTT and 1 mM MnCl2. The mixture was added to the pre-plated compounds. […] The reaction was incubated at room temperature for 40 min and stopped upon the addition of SA-XL665 and TK-antibody both diluted in EDTA-containing kinase detection buffer (Cisbio). The kinase activity was calculated as stated above and the IC50 values were reported.

[6] = molecular target: Human KDR (residues 790-1356) (Homo sapiens (Human), UniProt P35968); assay: Human KDR kinase assay, HTRF KinEase (Example B-2); assay type: biochemical; conditions: protocol of Example B-2 (other compounds)
Protocol: as §1, §2
Example B-2: Human KDR (residues 790-1356; CarnaBio, 0.1 ng/well) was also incubated with enzymatic buffer (Cisbio) supplemented with 5 mM MgCl2, 1 mM MnCl2, and 1 mM DTT. The mixture was added to the pre-plated compounds. The reaction was initiated upon addition of ATP at Km (4.0 μM). The reaction was incubated at room temperature for 40 min and stopped upon the addition of SA-XL665 and TK-antibody both diluted in EDTA-containing kinase detection buffer (Cisbio). The kinase activity was calculated as stated above and the IC50 values were reported.

[7] = protocol of Example C-2 (other compounds)
[8] = protocol of Example D-2 (other compounds)

Sequence of Met (phospho-Met, HGF-stimulated PC-3 prostate cancer cells) (P08581 25-1390): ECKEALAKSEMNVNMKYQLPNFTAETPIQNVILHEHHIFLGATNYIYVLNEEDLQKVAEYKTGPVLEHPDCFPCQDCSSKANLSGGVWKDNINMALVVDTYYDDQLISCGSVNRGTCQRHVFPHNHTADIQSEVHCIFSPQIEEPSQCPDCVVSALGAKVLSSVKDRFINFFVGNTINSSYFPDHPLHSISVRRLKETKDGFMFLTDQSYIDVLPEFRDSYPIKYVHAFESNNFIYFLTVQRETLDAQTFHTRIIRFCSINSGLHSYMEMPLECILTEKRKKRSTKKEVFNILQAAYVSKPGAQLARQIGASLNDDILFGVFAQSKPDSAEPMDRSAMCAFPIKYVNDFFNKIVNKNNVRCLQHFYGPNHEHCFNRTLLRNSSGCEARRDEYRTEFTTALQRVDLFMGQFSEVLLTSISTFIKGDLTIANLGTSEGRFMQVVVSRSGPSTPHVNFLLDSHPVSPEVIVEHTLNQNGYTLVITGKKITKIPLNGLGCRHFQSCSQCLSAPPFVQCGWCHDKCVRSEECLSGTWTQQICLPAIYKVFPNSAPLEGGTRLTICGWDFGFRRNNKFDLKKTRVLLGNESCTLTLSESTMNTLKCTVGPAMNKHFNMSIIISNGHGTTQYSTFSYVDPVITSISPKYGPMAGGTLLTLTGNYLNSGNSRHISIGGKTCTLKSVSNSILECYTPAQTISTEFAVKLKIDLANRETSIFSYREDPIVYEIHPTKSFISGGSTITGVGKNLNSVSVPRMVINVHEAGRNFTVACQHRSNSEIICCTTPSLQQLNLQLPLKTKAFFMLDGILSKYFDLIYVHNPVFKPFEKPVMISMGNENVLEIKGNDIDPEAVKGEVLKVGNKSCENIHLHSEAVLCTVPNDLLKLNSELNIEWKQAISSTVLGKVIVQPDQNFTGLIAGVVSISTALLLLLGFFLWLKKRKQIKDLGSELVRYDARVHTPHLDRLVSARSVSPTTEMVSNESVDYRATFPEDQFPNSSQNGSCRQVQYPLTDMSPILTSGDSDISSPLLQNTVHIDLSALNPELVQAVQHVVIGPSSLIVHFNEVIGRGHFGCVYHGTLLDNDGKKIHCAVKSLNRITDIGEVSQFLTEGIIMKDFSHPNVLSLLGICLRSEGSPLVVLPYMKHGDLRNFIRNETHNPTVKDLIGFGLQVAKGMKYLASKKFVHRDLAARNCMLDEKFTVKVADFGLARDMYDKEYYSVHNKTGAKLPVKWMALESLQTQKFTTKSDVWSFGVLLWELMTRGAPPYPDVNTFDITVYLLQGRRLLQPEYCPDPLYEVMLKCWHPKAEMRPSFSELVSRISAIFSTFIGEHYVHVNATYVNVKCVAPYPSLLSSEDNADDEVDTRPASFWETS
Sequence of Human KDR (residues 790-1356) (P35968 790-1356): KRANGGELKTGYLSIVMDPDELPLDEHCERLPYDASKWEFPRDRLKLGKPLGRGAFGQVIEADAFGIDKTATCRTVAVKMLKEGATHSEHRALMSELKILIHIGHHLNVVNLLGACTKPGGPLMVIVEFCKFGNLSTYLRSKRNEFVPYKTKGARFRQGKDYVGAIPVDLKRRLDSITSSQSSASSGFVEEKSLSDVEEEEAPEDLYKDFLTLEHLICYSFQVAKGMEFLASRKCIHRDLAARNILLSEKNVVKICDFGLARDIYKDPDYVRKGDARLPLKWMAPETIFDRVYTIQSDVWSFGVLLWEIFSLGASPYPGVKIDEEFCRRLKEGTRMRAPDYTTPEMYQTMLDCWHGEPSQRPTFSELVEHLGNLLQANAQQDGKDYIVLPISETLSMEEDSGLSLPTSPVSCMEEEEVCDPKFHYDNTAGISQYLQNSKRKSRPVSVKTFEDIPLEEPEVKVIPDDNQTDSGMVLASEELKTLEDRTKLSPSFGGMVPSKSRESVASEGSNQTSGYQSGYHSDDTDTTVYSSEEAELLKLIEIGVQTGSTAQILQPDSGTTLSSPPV
Sequence of Mer (phospho-Mer, MERTK-transfected 293A cells) (Q12866 21-999): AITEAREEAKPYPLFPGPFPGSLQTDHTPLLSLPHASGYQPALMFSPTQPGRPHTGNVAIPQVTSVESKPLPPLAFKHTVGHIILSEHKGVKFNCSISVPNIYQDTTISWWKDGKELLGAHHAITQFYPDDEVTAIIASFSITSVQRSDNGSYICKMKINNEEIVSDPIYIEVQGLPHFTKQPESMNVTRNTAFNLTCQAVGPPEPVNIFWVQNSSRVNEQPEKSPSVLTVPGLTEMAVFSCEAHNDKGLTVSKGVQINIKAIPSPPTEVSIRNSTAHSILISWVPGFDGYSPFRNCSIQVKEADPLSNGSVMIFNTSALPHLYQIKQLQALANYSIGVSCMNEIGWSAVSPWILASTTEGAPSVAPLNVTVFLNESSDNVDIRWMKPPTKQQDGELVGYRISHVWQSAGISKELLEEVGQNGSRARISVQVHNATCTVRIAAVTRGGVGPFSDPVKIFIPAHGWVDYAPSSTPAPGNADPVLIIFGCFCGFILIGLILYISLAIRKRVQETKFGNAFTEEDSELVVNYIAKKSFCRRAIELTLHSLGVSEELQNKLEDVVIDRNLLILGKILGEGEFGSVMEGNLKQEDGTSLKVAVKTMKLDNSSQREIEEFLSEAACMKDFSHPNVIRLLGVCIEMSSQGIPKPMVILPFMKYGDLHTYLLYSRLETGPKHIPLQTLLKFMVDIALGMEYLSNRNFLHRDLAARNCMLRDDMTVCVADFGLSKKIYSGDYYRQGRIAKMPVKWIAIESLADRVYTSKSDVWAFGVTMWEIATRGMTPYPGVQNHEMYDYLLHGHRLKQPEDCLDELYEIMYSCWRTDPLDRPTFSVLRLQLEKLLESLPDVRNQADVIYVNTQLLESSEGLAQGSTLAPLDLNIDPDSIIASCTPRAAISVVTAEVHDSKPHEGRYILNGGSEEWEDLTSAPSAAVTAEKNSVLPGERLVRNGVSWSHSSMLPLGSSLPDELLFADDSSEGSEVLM
Sequence of Human MET (residues 956-1390) (P08581 956-1390): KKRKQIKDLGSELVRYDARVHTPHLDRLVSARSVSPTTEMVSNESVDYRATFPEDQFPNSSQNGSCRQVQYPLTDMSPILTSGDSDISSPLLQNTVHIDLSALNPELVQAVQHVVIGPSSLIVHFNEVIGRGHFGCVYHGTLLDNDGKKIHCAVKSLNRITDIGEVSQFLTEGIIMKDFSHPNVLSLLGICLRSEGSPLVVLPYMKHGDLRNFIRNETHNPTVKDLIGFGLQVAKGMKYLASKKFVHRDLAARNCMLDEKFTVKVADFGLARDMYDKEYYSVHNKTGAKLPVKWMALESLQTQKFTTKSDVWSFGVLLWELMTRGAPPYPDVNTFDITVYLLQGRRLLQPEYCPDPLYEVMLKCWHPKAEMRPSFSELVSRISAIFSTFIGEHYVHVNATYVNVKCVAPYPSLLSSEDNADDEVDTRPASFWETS
Sequence of Human MER (residues 528-999) (Q12866 528-999): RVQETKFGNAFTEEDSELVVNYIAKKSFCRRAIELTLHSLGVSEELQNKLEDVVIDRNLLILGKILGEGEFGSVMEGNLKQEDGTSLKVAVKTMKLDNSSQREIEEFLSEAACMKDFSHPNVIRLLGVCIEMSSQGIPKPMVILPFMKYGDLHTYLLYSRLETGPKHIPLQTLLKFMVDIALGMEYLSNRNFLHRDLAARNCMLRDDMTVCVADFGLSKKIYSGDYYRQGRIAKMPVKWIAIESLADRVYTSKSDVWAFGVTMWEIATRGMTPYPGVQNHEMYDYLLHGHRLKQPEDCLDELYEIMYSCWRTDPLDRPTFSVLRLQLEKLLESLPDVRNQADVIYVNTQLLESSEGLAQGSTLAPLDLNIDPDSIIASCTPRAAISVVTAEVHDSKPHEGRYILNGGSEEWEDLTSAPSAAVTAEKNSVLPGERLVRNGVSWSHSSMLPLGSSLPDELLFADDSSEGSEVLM

SMILES | IC50 [1] [nM] | IC50 [2] [nM] | IC50 [3] [nM] | IC50 [4, 7] [nM] | IC50 [5, 8] [nM] | IC50 [6] [nM] | IC50 ([4]; protocol of Example C-2) [nM] | IC50 ([5]; protocol of Example D-2) [nM]
COc1ccc2nccc(Oc3ccc(NC(=O)c4cn(C(C)C)c(C)c(-c5ccc(F)cc5)c4=O)cc3F)c2n1 [Compound 110, N-[3-Fluoro-4-[(6-methoxy-1,5-naphthyridin-4-yl)oxy]phenyl]-5-(4-fluorophenyl)-6-methyl-4-oxo-1-propan-2-ylpyridine-3-carboxamide] | < 100 | < 100 | > 300 | < 100 | < 100 |  |  | 
CNn1cc(C(=O)Nc2ccc(Oc3ccnc4cc(OC)c(OC)nc34)c(F)c2)c(=O)c(-c2ccc(F)cc2)c1 [Compound 135, N-[4-[(6,7-Dimethoxy-1,5-naphthyridin-4-yl)oxy]-3-fluorophenyl]-5-(4-fluorophenyl)-1-(methylamino)-4-oxopyridine-3-carboxamide] | < 100 | < 100 | < 100 | < 100 | < 100 |  |  | 
COc1cc2nccc(Oc3ccc(NC(=O)c4cn(N(C)C)cc(-c5ccc(F)cc5)c4=O)cc3F)c2nc1OC [Compound 136, N-[4-[(6,7-Dimethoxy-1,5-naphthyridin-4-yl)oxy]-3-fluorophenyl]-1-(dimethylamino)-5-(4-fluorophenyl)-4-oxopyridine-3-carboxamide] | < 100 | < 100 | < 100 | < 100 | < 100 |  |  | 
COc1cnc2c(Oc3ccc(NC(=O)c4cnc(C)c(-c5ccc(F)cc5)c4O)cc3)ccnc2c1 [Compound 147, 5-(4-Fluorophenyl)-4-hydroxy-N-[4-[(7-methoxy-1,5-naphthyridin-4-yl)oxy]phenyl]-6-methylpyridine-3-carboxamide] | < 100 | < 100 | < 100 | < 100 | < 100 |  |  | 
COc1cc2nccc(Oc3ccc(NC(=O)c4cnc(C)n(-c5ccc(F)cc5)c4=O)cc3)c2nc1OC [Compound 267, N-[4-[(6,7-Dimethoxy-1,5-naphthyridin-4-yl)oxy]phenyl]-1-(4-fluorophenyl)-2-methyl-6-oxopyrimidine-5-carboxamide] | < 100 |  | > 300 | > 300 |  | > 300 |  | 
Cc1ccc(C(=O)Nc2ccc(Oc3ccnc4cccnc34)c(F)c2)c(=O)n1-c1ccc(F)cc1 [Compound 302, N-[3-Fluoro-4-(1,5-naphthyridin-4-yloxy)phenyl]-1-(4-fluorophenyl)-6-methyl-2-oxopyridine-3-carboxamide] | < 100 | < 100 | 100 to 300 | < 100 |  | > 300 |  | 
Cc1ccn(-c2ccc(F)cc2)c(=O)c1C(=O)Nc1ccc(Oc2ccnc3cccnc23)c(F)c1 [Compound 303, N-[3-Fluoro-4-(1,5-naphthyridin-4-yloxy)phenyl]-1-(4-fluorophenyl)-4-methyl-2-oxopyridine-3-carboxamide] | < 100 | < 100 | > 300 | 100 to 300 |  | > 300 |  | 
COc1cc2nccc(Oc3ccc(NC(=O)c4ccc(CO)n(-c5ccc(F)cc5)c4=O)cc3F)c2nc1OC [Compound 357, N-[4-[(6,7-dimethoxy-1,5-naphthyridin-4-yl)oxy]-3-fluorophenyl]-1-(4-fluorophenyl)-6-(hydroxymethyl)-2-oxopyridine-3-carboxamide] | < 100 | < 100 |  | < 100 |  | < 100 |  | 

Continued, values first:

IC50 [1] [nM] | IC50 [2] [nM] | IC50 [3] [nM] | IC50 [4, 7] [nM] | IC50 [5, 8] [nM] | IC50 [6] [nM] | IC50 ([4]; protocol of Example C-2) [nM] | IC50 ([5]; protocol of Example D-2) [nM] | SMILES
< 100 | < 100 | < 100 | < 100 | < 100 |  |  |  | COc1cc2nccc(Oc3ccc(NC(=O)c4c5n(cc(-c6ccc(F)cc6)c4=O)CCC5)cc3F)c2nc1OC [Compound 404, N-[4-[(6,7-dimethoxy-1,5-naphthyridin-4-yl)oxy]-3-fluorophenyl]-6-(4-fluorophenyl)-7-oxo-2,3-dihydro-1H-indolizine-8-carboxamide]
< 100 | < 100 | > 300 | < 100 | < 100 |  |  |  | COc1cnc2c(Oc3ccc(NC(=O)c4c5n(cc(-c6ccc(F)cc6)c4=O)CCC5)cc3F)ccnc2c1 [Compound 405, N-[3-fluoro-4-[(7-methoxy-1,5-naphthyridin-4-yl)oxy]phenyl]-6-(4-fluorophenyl)-7-oxo-2,3-dihydro-1H-indolizine-8-carboxamide]
< 100 | < 100 | 100 to 300 |  |  |  | < 100 | < 100 | COc1nc2c(Oc3ccc(NC(=O)c4cn(C(C)C)cc(-c5ccc(F)cc5)c4=O)cc3F)ccnc2cc1-c1cccnc1 [Compound 605, N-[3-Fluoro-4-[(6-methoxy-7-pyridin-3-yl-1,5-naphthyridin-4-yl)oxy]phenyl]-5-(4-fluorophenyl)-4-oxo-1-propan-2-ylpyridine-3-carboxamide hydrochloride]
< 100 | < 100 | 100 to 300 |  |  |  | < 100 | < 100 | COc1nc2c(Oc3ccc(NC(=O)c4cn(C(C)C)c(C)c(-c5ccc(F)cc5)c4=O)cc3F)ccnc2cc1-c1cccnc1 [Compound 606, N-[3-Fluoro-4-[(6-methoxy-7-pyridin-3-yl-1,5-naphthyridin-4-yl)oxy]phenyl]-5-(4-fluorophenyl)-6-methyl-4-oxo-1-propan-2-ylpyridine-3-carboxamide hydrochloride]
< 100 | < 100 | < 100 |  |  |  |  | < 100 | COc1nc2c(Oc3ccc(NC(=O)c4cnc(C)c(-c5ccc(F)cc5)c4O)cc3F)ccnc2cc1-c1cnn(C(F)F)c1 [Compound 607, N-[4-[[7-[1-(Difluoromethyl)pyrazol-4-yl]-6-methoxy-1,5-naphthyridin-4-yl]oxy]-3-fluorophenyl]-5-(4-fluorophenyl)-4-hydroxy-6-methylpyridine-3-carboxamide]
< 100 | < 100 | < 100 |  |  |  |  | < 100 | COc1nc2c(Oc3ccc(NC(=O)c4cn(C(C)C)cc(-c5ccc(F)cc5)c4=O)cc3F)ccnc2cc1-c1cnn(C(F)F)c1 [Compound 608, N-[4-[[7-[1-(Difluoromethyl)pyrazol-4-yl]-6-methoxy-1,5-naphthyridin-4-yl]oxy]-3-fluorophenyl]-5-(4-fluorophenyl)-4-oxo-1-propan-2-ylpyridine-3-carboxamide]
< 100 | < 100 | < 100 |  |  |  | < 100 | < 100 | COc1nc2c(Oc3ccc(NC(=O)c4cn(C(C)C)c(C)c(-c5ccc(F)cc5)c4=O)cc3F)ccnc2cc1-c1cnn(C(F)F)c1 [Compound 609, N-[4-[[7-[1-(Difluoromethyl)pyrazol-4-yl]-6-methoxy-1,5-naphthyridin-4-yl]oxy]-3-fluorophenyl]-5-(4-fluorophenyl)-6-methyl-4-oxo-1-propan-2-ylpyridine-3-carboxamide]
